Data reported in patent publication US20240228458A1, “PYRIMIDINE DERIVATIVE HAVING PROTEIN KINASE INHIBITORY ACTIVITY, AND THERAPEUTIC PHARMACEUTICAL COMPOSITION COMPRISING SAME” (THERAPEX CO., LTD., priority 2021, published 2024).

Key:
Format in all cases: cell-based
[1] = system: Ba/F3 cells expressing L858R/T790M/C797S (EGFR-LTC); assay: Growth inhibition (GI50) of Ba/F3 cells expressing L858R/T790M/C797S (EGFR-LTC), Celltiter glo; conditions: Mus musculus, BaF3, 72 h
Description: (§1) In this experimental example, a determination was made as to whether the compounds prepared in Examples 1-283 have the ability to inhibit the growth of Ba/F3 cells expressing EGFR-wt, del19/T790M/C797S (EGFR-DTC), L858R/T790M/C797S (EGFR-LTC), del19/T790M (EGFR-DT), and L858R/T790M (EGFR-LT) variants.
(§2) The parental Ba/F3 cell line is a population of cells that are not introduced with EGFR variants. Specifically, 100 μl of a cell line expressing each variant was plated in a 96-well plate at a density of 100,000 cells/ml. 10-point, 4-fold serial dilutions of each compound were prepared, starting at 2 mM. After 4 h, 0.5 μl of the compound (0.5% DMSO) was added, followed by incubation at 37° C. and 5% CO2 for 72 h. After incubation, the number of viable cells was measured using a Celltiter glo assay kit (Promega) and the GI50 of the compound was determined. The term “GI50” refers to the molar concentration (μM) of the compound required for 50% growth inhibition of cells.

[2] = system: Ba/F3 cells expressing del19/T790M/C797S (EGFR-DTC); assay: Growth inhibition (GI50) of Ba/F3 cells expressing del19/T790M/C797S (EGFR-DTC), Celltiter glo; conditions: Mus musculus, BaF3, 72 h
Description: as §1, §2

[3] = system: parental Ba/F3 cell line; assay: Growth inhibition (GI50) of the parental Ba/F3 cell line (not introduced with EGFR variants), Celltiter glo; conditions: Mus musculus, BaF3, 72 h, parental Ba/F3 cells
Description: as §2

[4] = system: Ba/F3 cells expressing EGFR-wt; assay: Growth inhibition (GI50) of Ba/F3 cells expressing EGFR-wt, Celltiter glo; conditions: Mus musculus, BaF3, 72 h
Description: as §1, §2

CC(=O)Nc1ccccc1Nc1nc(Nc2ccc(N3CCC(N4CCN(C)CC4)CC3)c(F)c2)ncc1Cl [Example 69, N-(2-((5-chloro-2-((3-fluoro-4-(4-(4-methylpiperazin-1-yl)piperidin-1-yl)phenyl)amino)pyrimidin-4-yl)amino)phenyl)acetamide] was tested, and the GI50 [1] was 1 to 25 nM, the GI50 [2] was 1 to 25 nM and the GI50 [3] was 1 to 25 nM. It also gave a GI50 [4] of 25 to 100 nM.
COc1cc(N2CCC(N3CCN(C)CC3)CC2)c(C)cc1Nc1ncc(Cl)c(Nc2cc(Cl)c(Cl)cc2NC(C)=O)n1 [Example 71, N-(4,5-dichloro-2-((5-chloro-2-((2-methoxy-5-methyl-4-(4-(4-methylpiperazin-1-yl)piperidin-1-yl)phenyl)amino)pyrimidin-4-yl)amino)phenyl)acetamide] gave a GI50 [1] of 100 to 500 nM, a GI50 [2] of 100 to 500 nM and a GI50 [3] of 500 to 2000 nM. It also gave a GI50 [4] of 100 to 500 nM.
Molecule COc1nc(N2CCC(N3CCN(C)CC3)CC2)ccc1Nc1ncc(Cl)c(Nc2cc(Cl)c(Cl)cc2NC(C)=O)n1 [Example 72] has a GI50 [1] of 500 to 2000 nM, a GI50 [2] of 500 to 2000 nM and a GI50 [3] of 2000 to 10000 nM. It also gave a GI50 [4] of 500 to 2000 nM.
CC(=O)Nc1cc(Cl)c(Cl)cc1Nc1nc(Nc2cnc(N3CCC(N4CCN(C)CC4)CC3)c(F)c2)ncc1Cl [Example 73, N-(4,5-dichloro-2-((5-chloro-2-((5-fluoro-6-(4-(4-methylpiperazin-1-yl)piperidin-1-yl)pyridin-3-yl)amino)pyrimidin-4-yl)amino)phenyl)acetamide] showed a GI50 [1] of 500 to 2000 nM, a GI50 [2] of 500 to 2000 nM and a GI50 [3] of 2000 to 10000 nM. It also gave a GI50 [4] of 500 to 2000 nM.
In the case of CC(=O)Nc1cc(Cl)c(Cl)cc1Nc1nc(Nc2ccc(N3CCOCC3)nc2)ncc1Cl [Example 74, N-(4,5-dichloro-2-((5-chloro-2-((6-morpholinopyridin-3-yl)amino)pyrimidin-4-yl)amino)phenyl)acetamide], the GI50 [1] is reported as 2000 to 10000 nM, the GI50 [2] is reported as 2000 to 10000 nM and the GI50 [3] is reported as over 10000 nM. It also gave a GI50 [4] of over 10000 nM.
For COc1cc(N2CCC(N3CCN(C)CC3)CC2)ccc1Nc1ncc(Cl)c(Nc2cc(Cl)c(Cl)cc2NC(C)=O)n1 [Example 75, N-(4,5-dichloro-2-((5-chloro-2-((2-methoxy-4-(4-(4-methylpiperazin-1-yl)piperidin-1-yl)phenyl)amino)pyrimidin-4-yl)amino)phenyl)acetamide], the GI50 [1] was 100 to 500 nM, the GI50 [2] was 100 to 500 nM and the GI50 [3] was 100 to 500 nM. For the same molecule, the GI50 [4] was 100 to 500 nM.
In the case of CC(=O)Nc1cc(Cl)c(Cl)cc1Nc1nc(Nc2ccc(N3CCC(N4CCN(C)CC4)CC3)c(F)c2)ncc1Cl [Example 76, N-(4,5-dichloro-2-((5-chloro-2-((3-fluoro-4-(4-(4-methylpiperazin-1-yl)piperidin-1-yl)phenyl)amino)pyrimidin-4-yl)amino)phenyl)acetamide], the GI50 [1] is reported as 100 to 500 nM, the GI50 [2] is reported as 100 to 500 nM and the GI50 [3] is reported as 100 to 500 nM. For the same molecule, the GI50 [4] was 100 to 500 nM.
CC(=O)Nc1cc(Cl)c(Cl)cc1Nc1nc(Nc2ccc(N3CCC(N4CCN(C)CC4)CC3)cc2Cl)ncc1Cl [Example 77, N-(4,5-dichloro-2-((5-chloro-2-((2-chloro-4-(4-(4-methylpiperazin-1-yl)piperidin-1-yl)phenyl)amino)pyrimidin-4-yl)amino)phenyl)acetamide] gave a GI50 [1] of 500 to 2000 nM, a GI50 [2] of 500 to 2000 nM and a GI50 [3] of 500 to 2000 nM. It also gave a GI50 [4] of 500 to 2000 nM.
Work on COc1cc(N2CCC(N3CCN(C)CC3)CC2)c(C)cc1Nc1ncc(Cl)c(N(C)c2cc(Cl)c(Cl)cc2N(C)C(C)=O)n1 [Example 78, N-(4,5-dichloro-2-((5-chloro-2-((2-methoxy-5-methyl-4-(4-(4-methylpiperazin-1-yl)piperidin-1-yl)phenyl)amino)pyrimidin-4-yl)(methyl)amino)phenyl)-N-methylacetamide] yielded a GI50 [1] of 2000 to 10000 nM, a GI50 [2] of 2000 to 10000 nM and a GI50 [3] of 2000 to 10000 nM. For the same molecule, the GI50 [4] was 2000 to 10000 nM.
In the case of COc1nc(N2CCC(N3CCN(C)CC3)CC2)ccc1Nc1ncc(Cl)c(N(C)c2cc(Cl)c(Cl)cc2N(C)C(C)=O)n1 [Example 79, N-(4,5-dichloro-2-((5-chloro-2-((2-methoxy-6-(4-(4-methylpiperazin-1-yl)piperidin-1-yl)pyridin-3-yl)amino)pyrimidin-4-yl)(methyl)amino)phenyl)-N-methylacetamide], the GI50 [1] is reported as 500 to 2000 nM, the GI50 [2] is reported as 500 to 2000 nM and the GI50 [3] is reported as 500 to 2000 nM. For the same molecule, the GI50 [4] was 2000 to 10000 nM.
In the case of COc1nc(N2CCC(N3CCN(C)CC3)CC2)ccc1Nc1ncc(Cl)c(Nc2cc(Cl)ccc2NS(C)(=O)=O)n1 [Example 81], the GI50 [1] is reported as 500 to 2000 nM, the GI50 [2] is reported as 500 to 2000 nM and the GI50 [3] is reported as 500 to 2000 nM. For the same molecule, the GI50 [4] was 2000 to 10000 nM.
COc1cc(N2CCC(N3CCN(C)CC3)CC2)ccc1Nc1ncc(Cl)c(Nc2cc(Cl)ccc2NS(C)(=O)=O)n1 [Example 82, N-(4-chloro-2-((5-chloro-2-((2-methoxy-4-(4-(4-methylpiperazin-1-yl)piperidin-1-yl)phenyl)amino)pyrimidin-4-yl)amino)phenyl)methanesulfonamide] showed a GI50 [1] of 100 to 500 nM, a GI50 [2] of 100 to 500 nM and a GI50 [3] of 500 to 2000 nM. For the same molecule, the GI50 [4] was 500 to 2000 nM.
COc1nc(N2CCC(N3CCN(C)CC3)CC2)c(C)cc1Nc1ncc(Cl)c(Nc2cc(Cl)ccc2NS(C)(=O)=O)n1 [Example 83, N-(4-chloro-2-((5-chloro-2-((2-methoxy-5-methyl-6-(4-(4-methylpiperazin-1-yl)piperidin-1-yl)pyridin-3-yl)amino)pyrimidin-4-yl)amino)phenyl)methanesulfonamide] was tested, and the GI50 [1] was 100 to 500 nM, the GI50 [2] was 100 to 500 nM and the GI50 [3] was 2000 to 10000 nM. The GI50 [4] was 500 to 2000 nM.
In the case of CN1CCN(C2CCN(c3ccc(Nc4ncc(Cl)c(Nc5cc(Cl)ccc5NS(C)(=O)=O)n4)cc3F)CC2)CC1 [Example 84, N-(4-chloro-2-((5-chloro-2-((3-fluoro-4-(4-(4-methylpiperazin-1-yl)piperidin-1-yl)phenyl)amino)pyrimidin-4-yl)amino)phenyl)methanesulfonamide], the GI50 [1] is reported as 100 to 500 nM, the GI50 [2] is reported as 100 to 500 nM and the GI50 [3] is reported as 500 to 2000 nM. For the same molecule, the GI50 [4] was 100 to 500 nM.
COc1cc(N2CCC(N3CCC(N(C)C)C3)CC2)c(C)cc1Nc1ncc(Br)c(Nc2cc(Cl)ccc2NS(C)(=O)=O)n1 (stereo not drawn) [Example 91, N-(2-((5-bromo-2-((4-(4-(3-(dimethylamino)pyrrolidin-1-yl)piperidin-1-yl)-2-methoxy-5-methylphenyl)amino)pyrimidin-4-yl)amino)-4-chlorophenyl)methanesulfonamide] was tested, and the GI50 [1] was 25 to 100 nM, the GI50 [2] was 1 to 25 nM and the GI50 [3] was 2000 to 10000 nM. It also gave a GI50 [4] of 100 to 500 nM.
Work on COc1cc(N2CCC(N3CCN(C)CC3)CC2)c(F)cc1Nc1ncc(Br)c(Nc2cc(Cl)ccc2NS(C)(=O)=O)n1 [Example 92, N-(2-((5-bromo-2-((5-fluoro-2-methoxy-4-(4-(4-methylpiperazin-1-yl)piperidin-1-yl)phenyl)amino)pyrimidin-4-yl)amino)-4-chlorophenyl)methanesulfonamide] yielded a GI50 [1] of 25 to 100 nM, a GI50 [2] of 1 to 25 nM and a GI50 [3] of 2000 to 10000 nM. It also gave a GI50 [4] of 100 to 500 nM.
Cc1cc(Nc2ncc(Br)c(Nc3cc(Cl)ccc3NS(C)(=O)=O)n2)c(Cl)cc1N1CCC(N2CCN(C)CC2)CC1 [Example 93, N-(2-((5-bromo-2-((2-chloro-5-methyl-4-(4-(4-methylpiperazin-1-yl)piperidin-1-yl)phenyl)amino)pyrimidin-4-yl)amino)-4-chlorophenyl)methanesulfonamide] was tested, and the GI50 [1] was 25 to 100 nM, the GI50 [2] was 1 to 25 nM and the GI50 [3] was 2000 to 10000 nM. The GI50 [4] was 500 to 2000 nM.
With Cc1cc(Nc2ncc(Br)c(Nc3cc(Cl)ccc3NS(C)(=O)=O)n2)c(Cl)cc1N1CCC(N2CCC(N(C)C)C2)CC1 (stereo not drawn) [Example 96, N-(2-((5-bromo-2-((2-chloro-4-(4-(3-(dimethylamino)pyrrolidin-1-yl)piperidin-1-yl)-5-methylphenyl)amino)pyrimidin-4-yl)amino)-4-chlorophenyl)methanesulfonamide] the GI50 [1] was 500 to 2000 nM, the GI50 [2] was 500 to 2000 nM and the GI50 [3] was over 10000 nM. The GI50 [4] was 500 to 2000 nM.
COc1cc(N2CCC(N3CCN(C)CC3)CC2)c(C)cc1Nc1ncc(Cl)c(Nc2cc(Cl)c(Cl)cc2NS(C)(=O)=O)n1 [Example 99, N-(4,5-dichloro-2-((5-chloro-2-((2-methoxy-5-methyl-4-(4-(4-methylpiperazin-1-yl)piperidin-1-yl)phenyl)amino)pyrimidin-4-yl)amino)phenyl)methanesulfonamide] showed a GI50 [1] of 25 to 100 nM, a GI50 [2] of 25 to 100 nM and a GI50 [3] of over 10000 nM. It also gave a GI50 [4] of 500 to 2000 nM.
In the case of COc1nc(N2CCC(N3CCN(C)CC3)CC2)c(C)cc1Nc1ncc(Cl)c(Nc2cc(Cl)c(Cl)cc2NS(C)(=O)=O)n1 [Example 100], the GI50 [1] is reported as 100 to 500 nM, the GI50 [2] is reported as 100 to 500 nM and the GI50 [3] is reported as 2000 to 10000 nM. For the same molecule, the GI50 [4] was 500 to 2000 nM.
With CN1CCN(C2CCN(c3ccc(Nc4ncc(Cl)c(Nc5cc(Cl)c(Cl)cc5NS(C)(=O)=O)n4)cc3F)CC2)CC1 [Example 101, N-(4,5-dichloro-2-((5-chloro-2-((3-fluoro-4-(4-(4-methylpiperazin-1-yl)piperidin-1-yl)phenyl)amino)pyrimidin-4-yl)amino)phenyl)methanesulfonamide] the GI50 [1] was 100 to 500 nM, the GI50 [2] was 100 to 500 nM and the GI50 [3] was 2000 to 10000 nM. For the same molecule, the GI50 [4] was 100 to 500 nM.
